From the NIST ThermoML archive (doi:10.1021/acs.jced.6b00856)
± gives the expanded uncertainty stated by the source.

Experiment: mn = molality of the nth substance listed, in mol/kg
Settings: 101.3 kPa, Liquid; for viscosity: Capillary tube (Ostwald / Ubbelohde) method; for mass density: Pycnometric method

## C1CNCCN1 [piperazine] + O
303.15 K, m1 = 0.66
  viscosity: 0.987 ± 0.04 mPa·s
  mass density: 997.55 ± 0.27 kg/m3
303.15 K, m1 = 1.1
  viscosity: 1.169 ± 0.04 mPa·s
  mass density: 999.58 ± 0.27 kg/m3
303.15 K, m1 = 1.7
  viscosity: 1.456 ± 0.04 mPa·s
  mass density: 1002.4 ± 0.3 kg/m3
313.15 K, m1 = 0.66
  viscosity: 0.789 ± 0.039 mPa·s
  mass density: 994.45 ± 0.29 kg/m3
313.15 K, m1 = 1.1
  viscosity: 0.916 ± 0.04 mPa·s
  mass density: 995.73 ± 0.29 kg/m3
313.15 K, m1 = 1.7
  viscosity: 1.124 ± 0.04 mPa·s
  mass density: 998.08 ± 0.3 kg/m3
323.15 K, m1 = 0.66
  viscosity: 0.641 ± 0.039 mPa·s
  mass density: 989.89 ± 0.31 kg/m3
323.15 K, m1 = 1.1
  viscosity: 0.747 ± 0.039 mPa·s
  mass density: 991.34 ± 0.31 kg/m3
323.15 K, m1 = 1.7
  viscosity: 0.893 ± 0.039 mPa·s
  mass density: 993.64 ± 0.32 kg/m3
